Data taken from ChEMBL document CHEMBL2010722, “Structure-activity relationship study of beta-carboline derivatives as haspin kinase inhibitors” (Bioorg Med Chem Lett, 2012).
The source made the active and inactive calls. No cut-off for these calls is given here.

Assays:
[1] = target: Serine/threonine-protein kinase haspin (Homo sapiens) (UniProt Q8TF76); assay: Inhibition of human recombinant N-terminal MBP-tagged haspin kinase expressed in Escherichia coli DE3 at 10 uM after 10 mins by TR-FRET assay
[2] = target: T1, Serine/threonine-protein kinase haspin (Homo sapiens, UniProt Q8TF76)
T1 sequence (Q8TF76 whole entry): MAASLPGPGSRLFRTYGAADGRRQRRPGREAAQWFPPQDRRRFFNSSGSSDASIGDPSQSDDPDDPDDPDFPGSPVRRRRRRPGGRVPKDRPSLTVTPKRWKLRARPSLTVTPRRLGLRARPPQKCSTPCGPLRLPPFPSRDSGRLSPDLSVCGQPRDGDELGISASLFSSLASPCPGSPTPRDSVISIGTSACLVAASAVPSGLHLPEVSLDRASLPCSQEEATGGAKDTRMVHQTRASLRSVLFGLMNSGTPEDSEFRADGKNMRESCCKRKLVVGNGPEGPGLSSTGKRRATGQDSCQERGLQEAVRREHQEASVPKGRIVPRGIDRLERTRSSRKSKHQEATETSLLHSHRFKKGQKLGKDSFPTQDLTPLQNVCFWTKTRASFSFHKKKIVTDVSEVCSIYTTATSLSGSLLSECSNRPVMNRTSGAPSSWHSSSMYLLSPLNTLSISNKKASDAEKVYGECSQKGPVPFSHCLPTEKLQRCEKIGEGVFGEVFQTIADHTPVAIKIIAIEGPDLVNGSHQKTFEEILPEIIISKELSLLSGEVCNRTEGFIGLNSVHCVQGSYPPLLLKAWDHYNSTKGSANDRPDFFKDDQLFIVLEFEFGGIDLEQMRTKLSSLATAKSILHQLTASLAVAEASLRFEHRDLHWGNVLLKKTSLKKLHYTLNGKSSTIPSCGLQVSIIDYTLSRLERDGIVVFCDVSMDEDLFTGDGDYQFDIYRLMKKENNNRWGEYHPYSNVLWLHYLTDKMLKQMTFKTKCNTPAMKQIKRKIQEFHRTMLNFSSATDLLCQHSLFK

[3] = target: T2, Dual specificity tyrosine-phosphorylation-regulated kinase 2 (Homo sapiens, UniProt Q92630)
T2 sequence (Q92630 whole entry): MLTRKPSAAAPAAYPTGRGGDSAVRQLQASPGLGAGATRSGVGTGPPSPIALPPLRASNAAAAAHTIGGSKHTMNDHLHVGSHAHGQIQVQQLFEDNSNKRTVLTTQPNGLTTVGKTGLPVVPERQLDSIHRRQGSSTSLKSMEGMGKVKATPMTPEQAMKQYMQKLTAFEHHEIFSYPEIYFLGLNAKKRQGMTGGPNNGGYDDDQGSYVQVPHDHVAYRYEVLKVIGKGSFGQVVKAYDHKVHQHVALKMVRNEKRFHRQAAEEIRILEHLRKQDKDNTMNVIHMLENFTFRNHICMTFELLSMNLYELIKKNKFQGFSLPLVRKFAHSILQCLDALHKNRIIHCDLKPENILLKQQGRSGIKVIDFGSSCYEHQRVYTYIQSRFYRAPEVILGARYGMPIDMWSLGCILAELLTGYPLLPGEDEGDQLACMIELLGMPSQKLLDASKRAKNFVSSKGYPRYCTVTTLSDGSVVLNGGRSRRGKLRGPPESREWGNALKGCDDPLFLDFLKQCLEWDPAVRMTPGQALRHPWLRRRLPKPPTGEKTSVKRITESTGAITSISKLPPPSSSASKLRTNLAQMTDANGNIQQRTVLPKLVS

[4] = target: T2, Dual specificity tyrosine-phosphorylation-regulated kinase 2; assay: Inhibition of DYRK2

Row | SMILES | inhibition [1] | IC50 [2] | IC50 [3] | IC50 [4]
1 | Cc1nccc2c1[nH]c1cc(OCCCCN)ccc12 | inactive |  |  | 
2 | NCCCCn1c2cc(O)ccc2c2ccnc(C(F)(F)F)c21 |  | 0.22 µM | 8.5 µM | 
3 | Cc1nccc2c3ccc(O)cc3n(CCCCN)c12 |  | 0.16 µM | > 10 µM | 
4 | CCc1nccc2c3ccc(OC)cc3n(CCCCN)c12 |  | 0.19 µM | > 10 µM | 
5 | Cc1nccc2c3ccc(OC(C)(C)C)cc3n(CCCCN)c12 |  | 4.6 µM | > 10 µM | 
6 | COc1ccc2c(c1)c1ccnc(C)c1n2CCCCN |  | 2.4 µM | 4.9 µM | 
7 | Cc1nccc2c3ccc(NS(C)(=O)=O)cc3n(CCCCN)c12 |  | 0.69 µM | > 10 µM | 
8 | Cc1nccc2c1[nH]c1cc(OCCCN)ccc12 | inactive |  |  | 
9 | COc1ccc2c3ccnc(C(C)C)c3n(CCCCN)c2c1 |  | 0.46 µM | > 10 µM | 
10 | COc1ccc2c(c1)[nH]c1c(C)nccc12 [HARMINE] |  |  |  | 0.69 µM
11 | COc1cccc2c3ccnc(C)c3n(CCCCN)c12 |  | 0.22 µM | > 10 µM | 
12 | COc1ccc2c3ccnc(C)c3n(CCCCN(C)C)c2c1 |  | 0.47 µM | > 10 µM | 
13 | COc1ccc2c3ccnc(C)c3n(CCCCN)c2c1Cl |  | 0.83 µM | 8 µM | 
14 | CNCCCCn1c2cc(OC)ccc2c2ccnc(C)c21 |  | 0.34 µM | > 10 µM | 
15 | COc1ccc2c3ccncc3n(CCCCN)c2c1 |  | 0.3 µM | > 10 µM | 
16 | Cc1nccc2c3ccc(F)cc3n(CCCCN)c12 |  | 0.58 µM | > 10 µM | 
17 | COc1cccc2c1c1ccnc(C)c1n2CCCCN |  | 2.7 µM | 7 µM | 
18 | Cc1nccc2c3cc4c(cc3n(CCCCN)c12)OCO4 |  | 0.5 µM | 4.8 µM | 
19 | COc1ccc2c3ccnc(C)c3n(CCCCN)c2c1 |  | 0.17 µM | > 10 µM | 
20 | Cc1[nH]ccc2c1[nH]c1cc(=O)ccc12 [HARMOL] |  | 0.77 µM |  | 1.5 µM
